Results reported in patent publication US10525055B2, “Opioid receptor antagonist prodrugs” (Nirsum Laboratories, Inc., priority 2017, dated 2020).

Assays:
[1] = Dog pharmacokinetic studies, deep intramuscular; type: in vivo, Beagle dogs; conditions: dog IM, 48 mg/kg, Sesame oil + 1% Benzyl Alcohol
Procedure: The purpose of this study is to determine the pharmacokinetics of test compounds in plasma, following deep intramuscular administration to Beagle dogs (n=3, unless otherwise specified).
(§1) The dose formulation (concentration−400 mg base equivalents/ml in sesame oil+1% benzyl alcohol, unless otherwise specified) was administered via deep intramuscularly (unless otherwise specified). The injection vehicle was also dosed via deep intramuscular route (unless otherwise specified) on contralateral site of each animal at study initiation. The animals were sedated with Propofol at 6 mg/kg via IV administration. Following sedation hair was carefully removed from around the injection site and the area gently cleaned. Care will be taken to avoid irritating skin during shaving and cleaning the injection site. Then dogs will be dosed with deep IM administration. At least 2.5 cm depth from the surface into the central aspect of the quadriceps or biceps femoris muscle, by angling the needle toward the femur. If the needle hits the femur, simply draws back slightly and then inject. The dose volume will be determined by the animals' body weight collected on the morning of dosing day. For repeated administration, the injection sites may be rotated to minimize tissue injury.
Blood samples were collected from a peripheral vessel from restrained, non-sedated animals per sampling time point.
Approximately 0.8 mL blood will be collected at each time point.
Each collected blood sample was centrifuged for 4 minutes at 4° C. and 10000 rpm for plasma collection. Plasma was collected and transferred into a pre-labeled PP tube in dry ice at each time point and precipitated immediately using ACN at a ratio of 1:4 (plasma:ACN). Centrifuged again (10 minutes, 12000 rpm) and obtain the supernatant.
After terminal collection, all supernatant was stored at approximately −80° C. F until bioanalysis.
LC-MS/MS methods for the quantitative determination of test compound in biological matrix were developed. […] The sample analysis was performed concurrently with a set of calibration standards and two sets of QC samples using the LC-MS/MS method.
Plasma concentration versus time data was analyzed by non-compartmental approaches using the Phoenix WinNonlin 6.3 software program. Cmax, Tmax, T1/2, AUC(0-t), AUC(0-inf), MRT(0-t), MRT(0-inf) and graphs of plasma concentration versus time profile were prepared.

[2] = Dog clinical observations after intramuscular dosing; type: in vivo, Beagle dogs
Procedure: Weight monitoring was done every week.
as §1

[3] = Solubility determination in oil (cottonseed oil, sesame oil); conditions: Sesame oil; volumetric flask method; heating 60 °C, obs. 25 °C
Procedure: A known amount of test substance (˜40 mg) was weighed into the vial, 100 μL of oil was added and heated to 60° C. and then system was slurried to reach equilibrium. […] Extra oil was added into the vial once compound precipitated out and then the system was re-equilibrated at 1000 rpm at room temperature (25° C.). Final concentration was determined by HPLC method as described below in Table 6a and 6b.

C=C1CC[C@@]2(O)C3Cc4ccc(OCOC(=O)OCCCCCCCCCC)c5c4[C@@]2(CCN3CC2CC2)[C@H]1O5 [Compound 35, (((4aS,7aS,12bS)-3-(cyclopropylmethyl)-4a-hydroxy-7-methylene-2,3,4,4a,5,6,7,7a-octahydro-1H-4,12-methanobenzofuro[3,2-e]isoquinolin-9-yl)oxy)methyl decyl carbonate]
Half-life t1/2 (hour) prodrug [1]: 70 h | Clinical observations, R-TA ([2]; dog D1501, 48 mg/kg, 24 hr): Red spots at groin | Clinical observations, R-TA ([2]; dog D1501, 48 mg/kg, 48 hr): Red spots at groin | BT (clinical observations, R-TA) ([2]; dog D1501, 48 mg/kg, 72 hr): at groin/BT: 39.1 °C | BT (clinical observations, R-TA) ([2]; dog D1501, 48 mg/kg, 96 hr): at groin/BT: 39.0 °C | BT (clinical observations, R-TA) ([2]; dog D1501, 48 mg/kg, 120 hr): at groin/BT: 39.1 °C | BT (clinical observations, R-TA) ([2]; dog D1501, 48 mg/kg, 144 hr): groin/BT: 38.7 °C | BT (clinical observations, R-TA) ([2]; dog D1501, 48 mg/kg, 192 hr): groin/BT: 38.2 °C | BT (clinical observations, R-TA) ([2]; dog D1501, 48 mg/kg, 216 hr): groin/BT: 38.6 °C | BT (clinical observations, R-TA) ([2]; dog D1501, 48 mg/kg, 240 hr): groin/BT: 38.2 °C | BT (clinical observations, R-TA) ([2]; dog D1501, 48 mg/kg, 264 hr): groin/BT: 38.0 °C | BT (clinical observations, R-TA) ([2]; dog D1501, 48 mg/kg, 288 hr): groin/BT: 38.4 °C | BT (clinical observations, R-TA) ([2]; dog D1501, 48 mg/kg, […]): groin/BT: 38.9 °C | BT (clinical observations, R-TA) ([2]; dog D1502 (third dog column), 48 mg/kg, 72 hr): leg/BT: 39.3 °C | BT (clinical observations, R-TA) ([2]; dog D1502 (third dog column), 48 mg/kg, 96 hr): leg/BT: 39.3 °C | BT (clinical observations, R-TA) ([2]; dog D1502 (third dog column), 48 mg/kg, 120 hr): BT: 39.4 °C | BT (clinical observations, R-TA) ([2]; dog D1502 (third dog column), 48 mg/kg, 144 hr): BT: 39.0 °C | BT (clinical observations, R-TA) ([2]; dog D1502 (third dog column), 48 mg/kg, 192 hr): at calf/BT: 39.2 °C | BT (clinical observations, R-TA) ([2]; dog D1502 (third dog column), 48 mg/kg, 216 hr): calf/BT: 39.2 °C | BT (clinical observations, R-TA) ([2]; dog D1502 (third dog column), 48 mg/kg, 240 hr): calf/BT: 38.9 °C | BT (clinical observations, R-TA) ([2]; dog D1502 (third dog column), 48 mg/kg, 264 hr): 6 * 6 cm/BT: 38.7 °C | BT (clinical observations, R-TA) ([2]; dog D1502 (third dog column), 48 mg/kg, 288 hr): 6 * 6 cm/BT: 38.7 °C | BT (clinical observations, R-TA) ([2]; dog D1502 (third dog column), 48 mg/kg, […]): at calf/BT: 39.3 °C | BT (clinical observations, R-TA) ([2]; dog D1502, 48 mg/kg, 72 hr): red/BT: 39.6 °C | BT (clinical observations, R-TA) ([2]; dog D1502, 48 mg/kg, 96 hr): red/BT: 38.9 °C | BT (clinical observations, R-TA) ([2]; dog D1502, 48 mg/kg, 120 hr): red/BT: 39.6 °C | BT (clinical observations, R-TA) ([2]; dog D1502, 48 mg/kg, 144 hr): redness/BT: 38.9 °C | BT (clinical observations, R-TA) ([2]; dog D1502, 48 mg/kg, 192 hr): BT: 38.7 °C | BT (clinical observations, R-TA) ([2]; dog D1502, 48 mg/kg, 216 hr): BT: 39.2 °C | BT (clinical observations, R-TA) ([2]; dog D1502, 48 mg/kg, 240 hr): BT: 38.6 °C | BT (clinical observations, R-TA) ([2]; dog D1502, 48 mg/kg, 264 hr): BT: 38.4 °C | BT (clinical observations, R-TA) ([2]; dog D1502, 48 mg/kg, 288 hr): BT: 38.6 °C | BT (clinical observations, R-TA) ([2]; dog D1502, 48 mg/kg, […]): redness/BT: 39.9 °C

C=C1CC[C@@]2(O)C3Cc4ccc(OC(=O)OCCCCCCCCCCC)c5c4[C@@]2(CCN3CC2CC2)[C@H]1O5 [Compound 3, (4aS,7aS,12bS)-3-(cyclopropylmethyl)-4a-hydroxy-7-methylene-2,3,4,4a,5,6,7,7a-octahydro-1H-4,12-methanobenzofuro[3,2-e]isoquinolin-9-yl undecyl carbonate]
Solubility by volumetric flask method: Sesame oil [3]: >400.7 mg/mL | AUC0-inf (ng · h/mL) prodrug [1]: 360 ng·h/mL | Half-life t1/2 (hour) prodrug [1]: 63.1 h
